One block for each compound: values may come before it.
Legend:
[1] = system: mouse L1210 leukemia cells; conditions: cited from earlier work
[2] = target: T1, γ-Glutamylcysteine Synthetase (Rattus norvegicus, UniProt P19468); assay: Inhibition of γ-glutamylcysteine synthetase (preincubation assay); assay type: biochemical; conditions: for Ki: 30 min preincubation, 22° C., read-out: Kiapp, Concentration for 50% Inhibition; for inhibition of γ-glutamylcysteine synthetase (in words): ranking compared with BSO
T1 construct: Rat kidney γ-Glutamylcysteine synthetase was purified from Sprague Dawley (Taconic Farms) rats; from tissue; host or cells: rat kidney (Sprague Dawley, Taconic Farms)
T1 sequence (P19468 1-637): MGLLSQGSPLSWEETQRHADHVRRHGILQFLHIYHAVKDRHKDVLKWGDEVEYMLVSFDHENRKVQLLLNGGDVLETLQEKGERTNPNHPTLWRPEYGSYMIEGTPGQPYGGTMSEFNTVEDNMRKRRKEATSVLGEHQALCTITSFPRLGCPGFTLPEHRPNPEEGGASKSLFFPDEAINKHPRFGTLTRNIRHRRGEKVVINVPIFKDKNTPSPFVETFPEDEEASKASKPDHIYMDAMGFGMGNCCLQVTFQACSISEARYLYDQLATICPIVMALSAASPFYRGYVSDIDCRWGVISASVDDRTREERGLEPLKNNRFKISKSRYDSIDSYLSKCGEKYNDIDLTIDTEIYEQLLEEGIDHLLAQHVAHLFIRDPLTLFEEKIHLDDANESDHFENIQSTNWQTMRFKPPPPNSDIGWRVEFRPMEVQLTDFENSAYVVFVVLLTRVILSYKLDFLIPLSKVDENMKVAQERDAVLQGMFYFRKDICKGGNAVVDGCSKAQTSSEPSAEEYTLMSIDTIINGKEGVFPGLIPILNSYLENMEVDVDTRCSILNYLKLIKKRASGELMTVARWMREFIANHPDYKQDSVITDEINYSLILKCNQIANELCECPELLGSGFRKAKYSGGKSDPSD
T1 sequence (P48508 1-274 partner): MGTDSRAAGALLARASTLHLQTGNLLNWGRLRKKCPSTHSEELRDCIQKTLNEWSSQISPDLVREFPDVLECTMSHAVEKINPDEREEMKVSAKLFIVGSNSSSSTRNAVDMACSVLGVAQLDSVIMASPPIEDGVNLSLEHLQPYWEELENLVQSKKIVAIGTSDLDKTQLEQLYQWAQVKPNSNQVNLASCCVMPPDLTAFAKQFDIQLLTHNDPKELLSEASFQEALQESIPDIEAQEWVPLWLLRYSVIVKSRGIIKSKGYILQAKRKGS
Procedure: Rat kidney γ-Glutamylcysteine synthetase was purified from Sprague Dawley (Taconic Farms) rats (Seelig., Methods in Enzymology, 1985, 113:379-390).
The preincubation assay of γ-glutamylcysteine synthetase is given below. γ-Glutamylcysteine synthetase (4.6 units) was added to a mixture (final volume, 50 μl) containing 100 mM Tris/HCl (pH 8.2), 5 mM ATP, 20 mM MgCl2, 0.2 mM EDTA, and the sulfoximine being evaluated. After incubation at 22° C. for 30 minutes, a 45 μl aliquot of the preincubation mixture was added to the assay as follows.
γ-Glutamylcysteine synthetase was assayed as follows (Griffith et al, J. Biological Chem., 1979, 254:1205-1210). The reaction mixture (final volume, 1.0 ml) contained 100 mM Tris/HCl (pH 8.2), 120 mM KCl, 5 mM phosphoenolpyruvate, 20 mM MgCl2, 10 mM sodium L-glutamate, 10 mM L-α-aminobutyric acid, 0.2 mM EDTA, 0.4 mM NADH, pyruvate kinase (10 IU), and lactate dehydrogenase (10 IU). The reaction (37° C.) was initiated by the addition of γ-glutamylcysteine synthetase and the oxidation of NADH, equivalent to ADP formation, was recorded at 340 nm.

glutathione [3] = assay: Tissue glutathione levels after intraperitoneal administration of sulfoximines; assay type: in vivo, mouse; conditions: for % Decrease in glutathione / Glutathione level: 2 mmol/Kg i.p.
Procedure: Male mice (Swiss Webster) were fasted overnight (about 16 hr). L-3-methylbuthionine-SR-sulfoximine (3 mBSO; L-S-3-methylbutyl homocysteine-SR-sulfoximine; L-S-isopentyl homocysteine-SR-sulfoximine), L-buthionine-SR-sulfoximine(BSO; L-S-butyl homocysteine-SR-sulfoximine), L-2-methylbuthiomine-SR-sulfoximine (2 mBSO, L-S-2methylbutyl homocysteine-SR-sulfoximine), or saline (0.9% NaCl) were administered to mice at 2 mmol/Kg intraperitoneally (50 mM, Ph ^~ 7). At the times indicated, plasma and tissues were obtained and assayed for glutathione (GSH+1/2 GSSG) as described by Anderson, Methods in Enzymology, 1985, 113:548-555.

glutathione [4] = assay: Tissue glutathione after oral administration of sulfoximines (Table 5); assay type: in vivo, mouse; conditions: 2 mmol/kg
Procedure: Male mice (Swiss Webster) were fasted overnight (about 16 hr.) L-buthionine-SR-sulfoximine (BSO, S-n-butyl homocysteine-SR-sulfoximine), L-S-cyclohexylmethyl homocysteine-SR-sulfoximine (CHMSO); L-S-2-ethylbutylhomocysteine-SR-sulfoximine (2 EtBSO, L-S-2-ethylbutyl homocysteine-SR-sulfoximine, or saline (0.9% NaCl) were administered to mice at 2 mmol/Kg by intubation (100 mM; pH about 1 with HCl (200 mM). At the times indicated, plasma and tissues were obtained and assayed for glutathione (GSH+1/2 GSSG) as described by Anderson, Methods in Enzymology, 1985, 113:548-555. (See Table 4 and 5.)

[5] = Detection of compound in mouse bile; assay type: in vivo

SMILES: N[C@@H](Cc1ccc(N(CCCl)CCCl)cc1)C(=O)O [phenylalanine mustard]
- dose needed to kill the most resistant cells versus most sensitive cell lines [1]: substantially higher
- conversion of phenylalanine mustard by resistant cells ([1]; glutathione-dependent dehydrochlorination): converted phenylalanine mustard to a non-toxic hydroxy derivative

- Ki [2]: 18.4 µM
SMILES: CCC(C)CS(=N)(=O)CC[C@H](N)C(=O)O (stereo partly drawn) [2m BSO, L-S-2methylbutyl homocysteine-SR-sulfoximine]
- % Decrease in glutathione (glutathione [3]; brain, 2 hr): 5%
- Glutathione level (glutathione [3]; brain, 2 hr): 2.19 µmol/g
- % Decrease in glutathione (glutathione [3]; brain, 12 hr): 0%
- Glutathione level (glutathione [3]; brain, 12 hr): 2.18 µmol/g
- % Decrease in glutathione (glutathione [3]; heart, 2 hr): 14%
- Glutathione level (glutathione [3]; heart, 2 hr): 1.15 µmol/g
- % Decrease in glutathione (glutathione [3]; heart, 12 hr): 8%
- Glutathione level (glutathione [3]; heart, 12 hr): 1.19 µmol/g
- % Decrease in glutathione (glutathione [3]; kidney, 2 hr): 25%
- Glutathione level (glutathione [3]; kidney, 2 hr): 2.08 µmol/g
- % Decrease in glutathione (glutathione [3]; kidney, 12 hr): 0%
- Glutathione level (glutathione [3]; kidney, 12 hr): 4.10 µmol/g
- % Decrease in glutathione (glutathione [3]; liver, 2 hr): 18%
- Glutathione level (glutathione [3]; liver, 2 hr): 4.49 µmol/g
- % Decrease in glutathione (glutathione [3]; liver, 12 hr): 0%
- Glutathione level (glutathione [3]; liver, 12 hr): 5.05 µmol/g
- % Decrease in glutathione (glutathione [3]; plasma, 2 hr): 15%
- Glutathione level (glutathione [3]; plasma, 2 hr): 25.2 µM
- % Decrease in glutathione (glutathione [3]; plasma, 12 hr): 8%
- Glutathione level (glutathione [3]; plasma, 12 hr): 26.3 µM

- Ki [2]: 43.3 µM
SMILES: CCC(CC)CS(=N)(=O)CC[C@H](N)C(=O)O (stereo partly drawn) [2ETBSO, L-S-2-ethylbutyl homocysteine-SR-sulfoximine]

- Ki [2]: 0.6 µM
- inhibition of γ-glutamylcysteine synthetase (in words) [2]: best inhibitors, about equal to BSO
SMILES: CC(C)CCS(=N)(=O)CC[C@H](N)C(=O)O (stereo partly drawn) [3m BSO, L-S-3-methylbutyl homocysteine-SR-sulfoximine]
- % Decrease in glutathione (glutathione [3]; brain, 2 hr): 10%
- Glutathione level (glutathione [3]; brain, 2 hr): 2.09 µmol/g
- % Decrease in glutathione (glutathione [3]; brain, 12 hr): 10%
- Glutathione level (glutathione [3]; brain, 12 hr): 1.92 µmol/g
- % Decrease in glutathione (glutathione [3]; heart, 2 hr): 16%
- Glutathione level (glutathione [3]; heart, 2 hr): 1.13 µmol/g
- % Decrease in glutathione (glutathione [3]; heart, 12 hr): 57%
- Glutathione level (glutathione [3]; heart, 12 hr): 0.55 µmol/g
- % Decrease in glutathione (glutathione [3]; kidney, 2 hr): 81%
- Glutathione level (glutathione [3]; kidney, 2 hr): 0.73 µmol/g
- % Decrease in glutathione (glutathione [3]; kidney, 12 hr): 53%
- Glutathione level (glutathione [3]; kidney, 12 hr): 1.69 µmol/g
- % Decrease in glutathione (glutathione [3]; liver, 2 hr): 77%
- Glutathione level (glutathione [3]; liver, 2 hr): 1.26 µmol/g
- % Decrease in glutathione (glutathione [3]; liver, 12 hr): 22%
- Glutathione level (glutathione [3]; liver, 12 hr): 3.86 µmol/g
- depletion of liver glutathione compared with BSO (glutathione [3]; liver, after 2 hr): more effective than BSO
- % Decrease in glutathione (glutathione [3]; plasma, 2 hr): 64%
- Glutathione level (glutathione [3]; plasma, 2 hr): 10.6 µM
- % Decrease in glutathione (glutathione [3]; plasma, 12 hr): 30%
- Glutathione level (glutathione [3]; plasma, 12 hr): 19.2 µM

SMILES: N=S(=O)(CC[C@H](N)C(=O)O)CC1CCCCC1 (stereo partly drawn) [CHMSO, L-S-cyclohexylmethyl homocysteine-SR-sulfoximine]
- decrease in brain glutathione levels (glutathione [4]; 12 hours, experimental error about 5%): no decrease
- decrease in glutathione levels (cardio-toxicity) (glutathione [4]; 2 hours, mice): 8%
- Ki [2]: 3.8 µM
- inhibition of γ-glutamylcysteine synthetase (in words) [2]: best inhibitors, about equal to BSO
- detection in mouse bile [5]: CHMSO was detected
